Measured values reported in patent EP0550775A1, “Cephalosporin derivatives” (F. HOFFMANN-LA ROCHE AG, priority 1992, dated 1993).
Where a name gives a salt, the structure may show the parent alone.

How the values were obtained:
Ps. aeruginosa 5712 = assay: In vitro MIC, Agar Dilution Method; format: cell-based; conditions: Pseudomonas aeruginosa, read-out: MIC
Method: (§1) In vitro activity of the compounds of the present invention was measured by the Minimum Inhibitory Concentration (MIC) in micrograms/ml utilizing the Agar Dilution Method, which is well known in the art, against a variety of gram-negative and gram-positive organisms.

Staph. aureus 67 = assay: In vitro MIC, Agar Dilution Method; format: cell-based; conditions: Staphylococcus aureus; Staph. aureus 67; agar dilution; read-out: MIC
Method: as §1

[1] = system: Ps. aeruginosa ATCC 27853; assay: In vitro MIC, Agar Dilution Method; format: cell-based; conditions: Pseudomonas aeruginosa, ATCC27853, read-out: MIC
Method: as §1

Ser. marcescens SM = assay: In vitro MIC, Agar Dilution Method; format: cell-based; conditions: Serratia marcescens, read-out: MIC
Method: as §1

Ps. aeruginosa 765 = assay: In vitro MIC, Agar Dilution Method; format: cell-based; conditions: Pseudomonas aeruginosa, read-out: MIC
Method: as §1

Staph. aureus Smith = assay: In vitro MIC, Agar Dilution Method; format: cell-based; conditions: Staphylococcus aureus, read-out: MIC
Method: as §1

Staph. aureus 753 = assay: In vitro MIC, Agar Dilution Method; format: cell-based; conditions: Staphylococcus aureus, read-out: MIC
Method: as §1

K. pneumoniae A = assay: In vitro MIC, Agar Dilution Method; format: cell-based; conditions: Klebsiella pneumoniae; K. pneumoniae A; agar dilution; read-out: MIC
Method: as §1

Str. pyogenes 4 = assay: In vitro MIC, Agar Dilution Method; format: cell-based; conditions: Streptococcus pyogenes; Str. pyogenes 4; agar dilution; read-out: MIC
Method: as §1

Prot. vulgaris 1028 BC = assay: In vitro MIC, Agar Dilution Method; format: cell-based; conditions: Proteus vulgaris, read-out: MIC
Method: as §1

Staph. aureus 1059B = assay: In vitro MIC, Agar Dilution Method; format: cell-based; conditions: Staphylococcus aureus, read-out: MIC
Method: as §1

Prot. vulgaris ATCC 6380 = assay: In vitro MIC, Agar Dilution Method; format: cell-based; conditions: Proteus vulgaris, ATCC6380, read-out: MIC
Method: as §1

Str. pneumoniae 6301 = assay: In vitro MIC, Agar Dilution Method; format: cell-based; conditions: Streptococcus pneumoniae; Str. pneumoniae 6301; agar dilution; read-out: MIC
Method: as §1

Prot. mirabilis 90 = assay: In vitro MIC, Agar Dilution Method; format: cell-based; conditions: Proteus mirabilis; Prot. mirabilis 90; agar dilution; read-out: MIC
Method: as §1

Cit. freundi BS-16 = assay: In vitro MIC, Agar Dilution Method; format: cell-based; conditions: read-out: MIC
Method: as §1

Staph. aureus ATCC 29213 = assay: In vitro MIC, Agar Dilution Method; format: cell-based; conditions: Staphylococcus aureus, ATCC29213, read-out: MIC
Method: as §1

Ps. aeruginosa 8780 = assay: In vitro MIC, Agar Dilution Method; format: cell-based; conditions: Pseudomonas aeruginosa, read-out: MIC
Method: as §1

Str. faecalis ATCC 29212 = assay: In vitro MIC, Agar Dilution Method; format: cell-based; conditions: Enterococcus faecalis, ATCC29212; Str. faecalis ATCC 29212; agar dilution; read-out: MIC
Method: as §1

Ser. marcescens 1071 = assay: In vitro MIC, Agar Dilution Method; format: cell-based; conditions: Serratia marcescens; Ser. marcescens 1071; agar dilution; read-out: MIC
Method: as §1

Enter. cloacae 5699 = assay: In vitro MIC, Agar Dilution Method; format: cell-based; conditions: Enterobacter cloacae; Enter. cloacae 5699; agar dilution; read-out: MIC
Method: as §1

Ps. aeruginosa 18SH = assay: In vitro MIC, Agar Dilution Method; format: cell-based; conditions: Pseudomonas aeruginosa, read-out: MIC
Method: as §1

E. coli TEM-1 = assay: microbe, parasite or virus in culture; format: cell-based; conditions: Escherichia coli, agar dilution, read-out: MIC
Method: as §1

E. coli ATCC 25922 = assay: microbe, parasite or virus in culture; format: cell-based; conditions: Escherichia coli, ATCC25922, agar dilution, read-out: MIC
Method: as §1

Enter. cloacae P99 = assay: microbe, parasite or virus in culture; format: cell-based; conditions: Enterobacter cloacae, agar dilution, read-out: MIC
Method: as §1

E. coli 257 = assay: microbe, parasite or virus in culture; format: cell-based; conditions: Escherichia coli, agar dilution, read-out: MIC
Method: as §1

[2] = Chemical stability (half-life) in phosphate buffer by HPLC; format: physicochemical; conditions: pH 7.4, phosphate buffer (pH7.40; 37°C)
Method: Chemical stability (half-life) in phosphate buffer (pH 7.40; 37°C) of some of the compounds of the present invention was determined using high performance liquid chromatography (HPLC). A Hamilton PRP-1 (250 mm x 4.1 mm) column was used with UV detection at 280 nm. The mobile phase used consisted of a 0.01 M solution of tetradecyltrimethylammonium bromide in a mixture of 70% 0.072M phosphate buffer (pH 8.2) and 30% acetonitrile. In some experiments, minor adjustments to the pH and in the acetonitrile concentration were made to improve resolutions.

For `CCN1CCN(C(=O)N[C@@H](C(=O)N[C@@H]2C(=O)N3C(C(=O)O)=C(CN4CCN(c5cc6c(cc5F)c(=O)c(C(=O)O)cn6C5CC5)CC4)CS[C@H]23)c2ccc(O)cc2)C(=O)C1=O` [Compound E, [6R-[6α,7β(R)]]-3-[[4-(3-Carboxy-1-cyclopropyl-6-fluoro-1,4-dihydro-4-oxo-7-quinolinyl)-1-piperazinyl]methyl]-7-[[[[(4-ethyl-2,3-dioxo-1-piperazinyl)carbonyl]amino](4-hydroxyphenyl)acetyl]amino]-8-oxo-5-thia-1-azabicyclo[4.2.0]oct-2-ene-2-carboxylic acid trfluoroacetic acid salt], the MIC (Ps. aeruginosa 5712) was 32000 µg/mL, the MIC (Staph. aureus 67) was 16000 µg/mL and the MIC [1] was 8000 µg/mL. For the same compound, the MIC (Ser. marcescens SM) was 250 µg/mL, the MIC (Ps. aeruginosa 765) was 4000 µg/mL and the MIC (Staph. aureus Smith) was 2000 µg/mL. It also gave an MIC (Staph. aureus 753) of 2000 µg/mL, an MIC (K. pneumoniae A) of 500 µg/mL and an MIC (Str. pyogenes 4) of 125 µg/mL. For the same compound, the MIC (Prot. vulgaris 1028 BC) was 62.5 µg/mL, the MIC (Staph. aureus 1059B) was 2000 µg/mL and the MIC (Prot. vulgaris ATCC 6380) was 125 µg/mL. The MIC (Str. pneumoniae 6301) was 125 µg/mL, the MIC (Prot. mirabilis 90) was 1000 µg/mL and the MIC (Cit. freundi BS-16) was 62.5 µg/mL. For the same compound, the MIC (Staph. aureus ATCC 29213) was 2000 µg/mL, the MIC (Ps. aeruginosa 8780) was 8000 µg/mL and the MIC (Str. faecalis ATCC 29212) was 16000 µg/mL. The MIC (Ser. marcescens 1071) was 250 µg/mL, the MIC (Enter. cloacae 5699) was 125 µg/mL and the MIC (Ps. aeruginosa 18SH) was 2000 µg/mL. For the same compound, the MIC (E. coli TEM-1) was 31.3 µg/mL, the MIC (E. coli ATCC 25922) was ≤ 15.7 µg/mL and the MIC (Enter. cloacae P99) was ≤ 15.7 µg/mL. The MIC (E. coli 257) was ≤ 15.7 µg/mL and the half-life [2] was 60 h.
